Measurements as given in US10294202B2, “Pyrrolidinones as herbicides” (FMC Corporation, priority 2013, dated 2019).

Key:
[1] = tested on: Rice, W.S. Ind; test: Test F flood (paddy) test; assay type: in vivo, Oryza sativa Indica; conditions: 21 d, scale 0-100
Summary of the method: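 Visual injury ratings (0 no effect to 100 complete control) were taken 21 d after treatment against untreated controls. Compounds went directly into paddy water held 3 cm above soil, applied at the 2.0–2.5-leaf stage in sterilized Tama silt loam under a 30/27 °C, 16-h greenhouse regime.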

[2] = tested on: wheat, winter; test: Test D pre-/postemergence herbicide test; assay type: in vivo, Triticum aestivum; conditions: for Plant response rating, Wheat, Winter: Preemergence, scale 0 to 100 (0 no effect, 100 complete control); for Plant response rating: Postemergence, Wheat, Winter, scale 0 to 100
Source text: (§1) Seeds of plant species selected from bluegrass (annual bluegrass, Poa annua), blackgrass (Alopecurus myosuroides), canarygrass (littleseed canarygrass, Phalaris minor), chickweed (common chickweed, Stellaria media), galium (catchweed bedstraw, Galium aparine), bromegrass, downy (downy bromegrass, Bromus tectorum), field poppy (Papaver rhoeas), field violet (Viola arvensis), foxtail, green (green foxtail, Setaria viridis), deadnettle (henbit deadnettle, Lamium amplexicaule), ryegrass, Italian (Italian ryegrass, Lolium multiflorum), kochia (Kochia scoparia), lambsquarters (Chenopodium album), oilseed rape (Brassica napus), pigweed (Amaranthus retroflexus), chamomile (scentless chamomile, Matricaria inodora), Russian thistle (Salsola kali), speedwell (bird's-eye speedwell, Veronica persica), barley, spring (spring barley, Hordeum vulgare), wheat, spring (spring wheat, Triticum aestivum), buckwheat, wild (wild buckwheat, Polygonum convolvulus), mustard, wild (wild mustard, Sinapis arvensis), oat, wild (wild oat, Avena fatua), radish, wild (wild radish, Raphanus raphanistrum), […]), barley, winter (winter barley, Hordeum vulgare), and wheat, winter (winter wheat, Triticum aestivum) were planted into a silt loam soil and treated preemergence with test chemicals formulated in a non-phytotoxic solvent mixture which included a surfactant. At the same time, these species were planted in pots containing Redi-Earth® planting medium (Scotts Company, 14111 Scottslawn Road, Marysville, Ohio 43041) comprising spaghnum peat moss, vermiculite, wetting agent and starter nutrients and treated with postemergence applications of the test chemicals formulated in the same manner. Plants ranged in height from 2 to 18 cm (1- to 4-leaf stage). Treated plants and controls were maintained in a controlled growth environment for 7 to 21 days after which time all species were compared to controls and visually evaluated. Plant response ratings, summarized in Table D, are based on a scale of 0 to 100 where 0 is no effect and 100 is complete control. A dash (-) response means no test result.

[3] = tested on: wheat, spring; test: Test D pre-/postemergence herbicide test; assay type: in vivo, Triticum aestivum; conditions: for Plant response rating, Wheat, Spring: Preemergence, scale 0 to 100 (0 no effect, 100 complete control); for Plant response rating: Postemergence, Wheat, Spring, scale 0 to 100
Source text: as §1

[4] = tested on: canarygrass; test: Test C postemergence herbicide test; assay type: in vivo, Phalaris minor
Source text: (§2) At the same time, plants selected from these crop and weed species and also barley (winter barley, Hordeum vulgare), […]), chickweed (common chickweed, Stellaria media), deadnettle (henbit deadnettle, Lamium amplexicaule), and canarygrass (littleseed canarygrass, Phalaris minor) were planted in pots containing Redi-Earth® planting medium (Scotts Company, 14111 Scottslawn Road, Marysville, Ohio 43041) comprising spaghnum peat moss, vermiculite, wetting agent and starter nutrients and treated with postemergence applications of test chemicals formulated in the same manner. Plants ranged in height from 2 to 18 cm (1- to 4-leaf stage) for postemergence treatments. Treated plants and controls were maintained in a greenhouse for 13 to 15 days, after which time all species were compared to controls and visually evaluated. Plant response ratings, summarized in Table C, are based on a scale of 0 to 100 where 0 is no effect and 100 is complete control. A dash (-) response means no test result.

[5] = tested on: barley (winter barley); test: Test C postemergence herbicide test; assay type: in vivo, Hordeum vulgare
Source text: as §2

[6] = 31 g ai/ha, scale 0 (no effect) to 100 (complete control)
[7] = 62 g ai/ha, scale 0 to 100 (0 no effect, 100 complete control)
[8] = 125 g ai/ha, scale 0 to 100 (0 no effect, 100 complete control)
[9] = 16 g ai/ha, scale 0 to 100 (0 no effect, 100 complete control)

Compound | Plant response rating, Rice, W.S. Ind ([1]; 125 g ai/ha) | Plant response rating, Rice, W.S. Ind ([1]; 250 g ai/ha) | Plant response rating, Rice, W.S. Ind ([1]; 500 g ai/ha) | Plant response rating, Wheat, Winter ([2]; 62 g ai/ha) | Plant response rating, Wheat, Winter ([2]; 125 g ai/ha) | Plant response rating, Wheat, Winter ([2]; 31 g ai/ha) | Plant response rating, Wheat, Winter ([2]; 250 g ai/ha) | Plant response rating, Wheat, Spring ([3]; 62 g ai/ha) | Plant response rating, Wheat, Spring ([3]; 125 g ai/ha) | Plant response rating, Wheat, Spring ([3]; 31 g ai/ha) | Plant response rating, Wheat, Spring ([3]; 250 g ai/ha) | Plant response rating ([2]; 31 g ai/ha) | Plant response rating ([2]; 62 g ai/ha) | Plant response rating ([2]; 125 g ai/ha) | Plant response rating ([2]; 250 g ai/ha) | Plant response rating ([3]; 31 g ai/ha) | Plant response rating ([3]; 62 g ai/ha) | Plant response rating ([3]; 125 g ai/ha) | Plant response rating ([3]; 250 g ai/ha) | also measured
CN1CC(c2ccc(F)c(F)c2)C(C(=O)Nc2cccc(F)c2F)C1=O (stereo not drawn) [Compound 303] | 25 | 40 | 70 |  |  |  |  |  |  |  |  |  |  |  |  |  |  |  |  | 
O=C1NCC(c2ccc(F)c(C(F)(F)F)c2)C1C(=O)Nc1cccc(F)c1F (racemic) [Compound 77] |  |  |  | 0 | 25 | 0 | 55 | 10 | 20 | 10 | 25 |  |  |  |  |  |  |  |  | 
O=C1NC[C@H](c2cccc(C(F)(F)F)c2)[C@H]1C(=O)Nc1cccc(F)c1F [Compound 206] | 25 | 45 | 65 | 0 | 25 | 0 | 30 | 25 | 45 | 10 | 65 |  |  |  |  |  |  |  |  | Plant response rating, Rice, W.S. Ind ([1]; 64 g ai/ha): 15
O=C1NCC(c2ccc(C(F)(F)F)cc2)C1C(=O)Nc1cccc(F)c1F (racemic) [Compound 202] |  |  |  | 10 | 25 | 5 | 25 | 5 | 25 | 0 | 35 | 0 | 0 | 0 | 0 | 0 | 0 | 0 | 5 | 
O=C1NCC(c2ccc(F)c(F)c2)C1C(=O)Nc1cccc(F)c1F (racemic) [Compound 101] | 20 | 35 | 60 |  |  |  |  |  |  |  |  |  |  |  |  |  |  |  |  | Plant response rating, Rice, W.S. Ind ([1]; 64 g ai/ha): 0
O=C1NCC(c2ccc(C(F)(F)F)cc2)C1C(=O)Nc1ccccc1F (stereo not drawn) [Compound 231] |  |  |  | 10 | 15 | 5 | 25 | 5 | 0 | 0 | 20 | 0 | 0 | 0 | 0 | 0 | 0 | 0 | 0 | 
O=C1NCC(c2ccc(C(F)(F)F)cc2)C1C(=O)Nc1cccc(F)c1F (stereo not drawn) [Compound 80, N-(2,3-difluorophenyl)-2-oxo-4-[4-(trifluoromethyl)phenyl]-3-pyrrolidinecarboxamide] |  |  |  | 5 | 10 | 5 | 10 | 10 | 10 | 0 | 20 | 0 | 0 | 10 | 5 | 0 | 0 | 0 | 0 | 
O=C1NCC(c2ccc(F)c(Cl)c2)C1C(=O)Nc1ccccc1F (stereo not drawn) [Compound 60] |  |  |  |  |  |  |  |  |  |  |  |  |  |  |  |  |  |  |  | Plant response rating, Canarygrass [4, 6]: 0; Plant response rating, Canarygrass [4, 7]: 0; Plant response rating, Canarygrass [4, 8]: 0; Plant response rating, Barley [5, 6]: 0; Plant response rating, Barley [5, 7]: 0; Plant response rating, Barley [5, 8]: 20
O=C1NC[C@H](c2cccc(C(F)(F)F)c2)[C@H]1C(=O)Nc1ccccc1F [Compound 204, (3R,4S)—N-(2-fluorophenyl)-2-oxo-4-[3-(trifluoromethyl)phenyl]-3-pyrrolidinecarboxamide] | 0 | 10 | 20 | 15 | 15 | 5 | 20 | 0 | 25 | 0 | 30 |  |  |  |  |  |  |  |  | 
O=C1NCC(c2ccc(F)c(F)c2)C1C(=O)Nc1ccccc1C(F)(F)F (racemic) [Compound 6] |  |  |  | 0 | 0 | 0 | 0 | 0 | 0 | 0 | 0 | 0 | 0 | 0 | 0 | 0 | 5 | 5 | 5 | Plant response rating ([2]; 16 g ai/ha): 0; Plant response rating, Wheat, Winter ([2]; 16 g ai/ha): 0; Plant response rating ([3]; 16 g ai/ha): 0; Plant response rating, Wheat, Spring ([3]; 16 g ai/ha): 0
O=C1NCC(c2cccc(C(F)F)c2)C1C(=O)Nc1ccccc1F (racemic) [Compound 210] | 0 | 0 | 0 |  |  |  |  |  |  |  |  |  |  |  |  |  |  |  |  | 
O=C1NCC(c2cc(F)c(F)c(F)c2)C1C(=O)Nc1cccc(F)c1F (stereo not drawn) [Compound 48] |  |  |  |  |  |  |  |  |  |  |  |  |  |  |  |  |  |  |  | Plant response rating, Canarygrass [4, 9]: 0; Plant response rating, Canarygrass [4, 6]: 0; Plant response rating, Canarygrass [4, 7]: 0; Plant response rating, Canarygrass [4, 8]: 0; Plant response rating, Barley [5, 9]: 0; Plant response rating, Barley [5, 6]: 0; Plant response rating, Barley [5, 7]: 0; Plant response rating, Barley [5, 8]: 0
